Source: article PMC7534383, “Structure-activity relationship of 7-aryl-2-anilino-pyrrolopyrimidines as Mer and Axl tyrosine kinase inhibitors” (Journal of Enzyme Inhibition and Medicinal Chemistry, 2020)
pIC50: −log10 of the molar value. Entries after “also recorded” stand apart in the source; their conditions may differ. Where two headings read alike, the source gives them in different places. Blank lines part the entries; values can stand above or below the compound they belong to.

Legend:
[1] = test system: Mer; conditions: Figure 1, known TAM kinase inhibitors; cited from earlier work
[2] = molecular target: T1, TYRO3 (Homo sapiens, UniProt Q06418); conditions: Figure 1, known TAM kinase inhibitors; cited from earlier work
T1 sequence (Q06418 41-890): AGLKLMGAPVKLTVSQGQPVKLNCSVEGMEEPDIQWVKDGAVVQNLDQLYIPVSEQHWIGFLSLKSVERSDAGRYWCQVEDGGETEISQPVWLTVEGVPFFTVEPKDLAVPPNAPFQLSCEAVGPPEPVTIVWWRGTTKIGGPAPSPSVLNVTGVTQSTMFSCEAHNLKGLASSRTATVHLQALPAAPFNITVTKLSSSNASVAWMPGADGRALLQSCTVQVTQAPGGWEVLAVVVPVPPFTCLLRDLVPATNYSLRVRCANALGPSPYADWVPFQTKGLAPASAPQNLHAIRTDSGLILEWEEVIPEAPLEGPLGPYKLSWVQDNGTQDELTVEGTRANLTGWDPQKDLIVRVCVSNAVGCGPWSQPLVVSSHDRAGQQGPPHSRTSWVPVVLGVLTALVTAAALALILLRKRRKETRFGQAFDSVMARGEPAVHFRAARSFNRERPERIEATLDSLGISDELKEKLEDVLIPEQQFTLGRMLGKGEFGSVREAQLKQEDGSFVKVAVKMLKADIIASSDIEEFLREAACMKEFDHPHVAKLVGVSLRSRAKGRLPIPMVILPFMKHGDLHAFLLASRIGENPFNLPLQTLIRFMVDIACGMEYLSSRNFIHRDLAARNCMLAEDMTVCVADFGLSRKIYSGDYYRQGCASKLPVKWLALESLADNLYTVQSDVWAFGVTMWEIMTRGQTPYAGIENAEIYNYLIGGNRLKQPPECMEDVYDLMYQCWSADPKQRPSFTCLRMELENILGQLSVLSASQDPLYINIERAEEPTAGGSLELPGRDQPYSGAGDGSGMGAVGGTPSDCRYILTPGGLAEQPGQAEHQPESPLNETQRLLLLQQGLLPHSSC

[3] = molecular target: T2, MERTK (Homo sapiens, UniProt Q12866); assay: Kinase assay at Km ATP (Eurofins Discovery), Mer; type: biochemical; conditions: Km ATP, read-out: IC50 (nM) MER
T2 sequence (Q12866 21-999): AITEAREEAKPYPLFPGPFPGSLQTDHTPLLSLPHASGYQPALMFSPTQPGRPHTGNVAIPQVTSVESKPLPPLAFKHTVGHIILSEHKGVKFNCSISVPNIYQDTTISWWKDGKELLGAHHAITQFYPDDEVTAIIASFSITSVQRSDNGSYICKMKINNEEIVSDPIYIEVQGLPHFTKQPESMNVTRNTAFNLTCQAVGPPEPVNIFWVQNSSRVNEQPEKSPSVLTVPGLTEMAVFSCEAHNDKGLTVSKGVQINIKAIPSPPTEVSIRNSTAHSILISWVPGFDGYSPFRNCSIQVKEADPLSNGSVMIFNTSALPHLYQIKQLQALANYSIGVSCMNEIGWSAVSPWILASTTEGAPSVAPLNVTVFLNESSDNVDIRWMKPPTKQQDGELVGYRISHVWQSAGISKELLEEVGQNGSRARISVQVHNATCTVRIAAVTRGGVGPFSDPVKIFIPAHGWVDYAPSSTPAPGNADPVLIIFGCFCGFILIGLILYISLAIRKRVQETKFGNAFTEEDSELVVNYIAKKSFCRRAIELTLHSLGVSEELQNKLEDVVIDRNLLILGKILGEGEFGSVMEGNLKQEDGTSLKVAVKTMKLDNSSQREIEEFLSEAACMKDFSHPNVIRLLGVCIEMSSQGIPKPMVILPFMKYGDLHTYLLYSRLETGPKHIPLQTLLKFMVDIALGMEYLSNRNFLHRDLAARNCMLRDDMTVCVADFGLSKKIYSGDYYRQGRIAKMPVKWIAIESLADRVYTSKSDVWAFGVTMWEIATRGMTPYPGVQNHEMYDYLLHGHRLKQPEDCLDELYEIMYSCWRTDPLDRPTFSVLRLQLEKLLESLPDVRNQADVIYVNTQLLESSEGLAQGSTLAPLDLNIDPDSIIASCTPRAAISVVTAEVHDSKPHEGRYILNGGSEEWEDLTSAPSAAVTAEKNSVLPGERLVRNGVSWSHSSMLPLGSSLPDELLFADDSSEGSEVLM
Description: (§1) All kinase assays were carried out at Km ATP by Eurofins Discovery's Kinase Screening and Profiling services (France).

[4] = molecular target: T3, AXL (Homo sapiens, UniProt P30530); assay: Kinase assay at Km ATP (Eurofins Discovery), Axl; type: biochemical; conditions: Km ATP
T3 sequence (P30530 26-894): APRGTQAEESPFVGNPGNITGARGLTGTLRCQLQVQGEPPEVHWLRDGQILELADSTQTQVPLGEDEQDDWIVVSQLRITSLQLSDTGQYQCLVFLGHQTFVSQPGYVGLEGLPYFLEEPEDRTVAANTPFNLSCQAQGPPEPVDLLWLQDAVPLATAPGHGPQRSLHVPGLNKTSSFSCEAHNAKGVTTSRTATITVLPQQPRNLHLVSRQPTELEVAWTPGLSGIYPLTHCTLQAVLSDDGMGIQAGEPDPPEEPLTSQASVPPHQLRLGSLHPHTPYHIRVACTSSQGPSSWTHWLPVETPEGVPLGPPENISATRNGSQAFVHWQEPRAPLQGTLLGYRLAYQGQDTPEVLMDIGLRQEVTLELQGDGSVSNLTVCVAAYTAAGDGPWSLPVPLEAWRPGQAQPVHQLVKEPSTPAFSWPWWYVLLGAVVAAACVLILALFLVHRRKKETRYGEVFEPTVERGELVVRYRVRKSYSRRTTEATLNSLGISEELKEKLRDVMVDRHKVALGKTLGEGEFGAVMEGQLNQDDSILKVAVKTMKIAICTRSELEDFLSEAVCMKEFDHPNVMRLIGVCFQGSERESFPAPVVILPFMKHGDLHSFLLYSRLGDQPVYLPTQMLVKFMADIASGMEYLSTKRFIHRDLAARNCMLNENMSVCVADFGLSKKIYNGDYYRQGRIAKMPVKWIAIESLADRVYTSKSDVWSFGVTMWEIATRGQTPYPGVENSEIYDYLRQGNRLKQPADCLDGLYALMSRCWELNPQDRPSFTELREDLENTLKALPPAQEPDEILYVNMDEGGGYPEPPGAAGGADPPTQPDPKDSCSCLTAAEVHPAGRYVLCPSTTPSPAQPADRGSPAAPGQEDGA
Description: as §1

[5] = molecular target: T1, TYRO3; assay: Kinase assay at Km ATP (Eurofins Discovery), Tyro3; type: biochemical
Description: as §1

[6] = test system: Mer phosphorylation in Mer-overexpressed human gastric cancer cell line MKN28; assay: Western blot of Mer phosphorylation in MKN28 cells; type: cell-based; conditions: 0.5 and 0.1 μM, 1.5 h, UNC2025 positive control
Description: MKN28 cells were obtained from the Korea Institute of Science and Technology (KIST). Cells were cultured in Roswell Park Memorial Institute (RPMI) 1640 medium containing 10% fetal bovine serum and 1% penicillin/streptomycin at 37 °C with 5% CO2 under a humidified atmosphere.
MKN 28 cells (500,000 cells/2 ml) were seeded in each well of 6-well plates and incubated for 24 h. Then, the cells were treated with 20 µL of DMSO stock solution of the corresponding compounds and incubated for a further 1.5 h. After that, the cells were washed with cold Dulbecco's Phosphate-Buffered Saline (DPBS) twice and lysed with RIPA buffer supplemented with protease inhibitor and phosphatase inhibitor cocktails on ice. Equal amounts of protein samples were boiled with 5× SDS-PAGE loading buffer and separated by 10% SDS-PAGE gels, then transferred onto polyvinylidene difluoride (PVDF) membranes. The membranes were blocked with 5% BSA in 1× TBST (1× TBS with 0.1% Tween-20) for 1 h and incubated at 4 °C overnight with a 1:1000 dilution of the following primary antibodies in blocking buffer: pMer (Tyr749 + 753 + 754, ab14921), Mer (CST, # 4319), and ß-actin (SC, # SC-47778). […]
Figure 3. […] Bar graph represents the relative intensities of the total and phosphorylated Mer as determined by band densitometry using image analysis software.

SMILES: CCOc1ccn(-c2ccc(F)cc2)c(=O)c1C(=O)Nc1ccc(Oc2ccnc(N)c2Cl)c(F)c1 [BMS-777607]
pIC50 [1]: 7.85 | pIC50 [2]: 8.40

IC50 ([3]; Table 2): 2 nM | IC50 ([4]; Table 2): 16 nM | inhibition at 1 µM [5]: 40%
SMILES: COc1ccc(-n2ccc3cnc(Nc4cc(OC)cc(N5CCC(N6CCCC6)CC5)c4)nc32)cc1 [Compound 27, N-(3-Methoxy-5–(4-(pyrrolidin-1-yl)piperidin-1-yl)phenyl)-7–(4-methoxyphenyl)-7H-pyrrolo[2,3-d]pyrimidin-2-amine]
Inhibitory effect on Mer phosphorylation [6]: better effect on blocking phosphorylation than UNC2025; also recorded: considerable inhibition for Mer phosphorylation in cells

IC50 ([3]; Table 3): 484 nM | IC50 ([4]; Table 3): 2020 nM | %Inhibition at 1 µM TYRO3 ([5]; Table 3, 1 µM, Km ATP): 55%
SMILES: COc1cc(Nc2ncc3ccn([C@H]4CC[C@H](O)CC4)c3n2)cc(N2CCC(N3CCCC3)CC2)c1 [Compound 36, (1r,4r)-4–(2-((3-Methoxy-5–(4-(pyrrolidin-1-yl)piperidin-1-yl)phenyl)amino)-7H-pyrrolo[2,3-d]pyrimidin-7-yl)cyclohexanol]
